This note sets out measurements from the supplement of paper PMC10627819.

What all share (test): Bliss interaction score (quartile over a dose matrix) (fitness difference); higher = more antagonism (negative = synergy)
The test system of one assay is S. pneumoniae D39V. A digest of the protocol: (§1)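 The Bliss score is observed minus expected fitness, where expected fitness is the product of the single-drug fitness values inferred from the combination data. Fitness is the OD595 at the onset of stationary phase over the plate's robust no-drug mean, capped at 1. Scores are summarised by quartiles over technical, biological and donor/recipient replicates.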

The subject of the next assay is S. aureus DSM 20231. A digest of the protocol: as §1
In a further assay the test system is B. subtilis 168. A digest of the protocol:
as §1

Another assay relates to S. aureus Newman. In a few lines:
as §1
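Further: first quartile when negative (synergy) and third quartile when positive (antagonism).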

In the case of `CC(=O)Oc1ccccc1C(=O)O` [Acetylsalicylicacid] + Cn1nnc(-c2ccc(-c3ccc(N4C[C@H](CO)OC4=O)cc3F)cn2)n1 [Tedizolid], the Bliss interaction score in the assay with S. pneumoniae D39V is 0.0802; with S. aureus DSM 20231 it was -0.124; in the assay on B. subtilis 168 it was -0.184; in the assay with S. aureus Newman it was 0.0641.
As for `CC(=O)Oc1ccccc1C(=O)O` [Acetylsalicylicacid] + N[C@@H]1CONC1=O [CycloserineD], the Bliss interaction score was 0.146 in the assay with S. pneumoniae D39V, 0.0689 in the assay on S. aureus DSM 20231, 0.221 in the assay on B. subtilis 168 and -0.115 in the assay with S. aureus Newman.
For `CC(=O)Oc1ccccc1C(=O)O` [Acetylsalicylicacid] + O=C1CN(/N=C/c2ccc([N+](=O)[O-])o2)C(=O)N1 [Nitrofurantoin] the same measures were 0.0904, -0.0978, -0.202 and -0.0905.
The matching figures for `CC(=O)Oc1ccccc1C(=O)O` [Acetylsalicylicacid] + O=C(N[C@H](CO)[C@H](O)c1ccc([N+](=O)[O-])cc1)C(Cl)Cl [Chloramphenicol]: 0.115, -0.0904, 0.0772 and 0.0794.
As for `CC(=O)Oc1ccccc1C(=O)O` [Acetylsalicylicacid] + O=C(O)[C@H]1/C(=C/CO)O[C@@H]2CC(=O)N21 [Clavulanic], the Bliss interaction score in the assay on S. pneumoniae D39V is 0.0345; in the assay on S. aureus DSM 20231, -0.553; in the assay with B. subtilis 168, 0.0831; in the assay on S. aureus Newman, 0.0986.
For `CC(=O)Oc1ccccc1C(=O)O` [Acetylsalicylicacid] + O=C(O)c1cn(C2CC2)c2cc(N3CCNCC3)c(F)cc2c1=O [Ciprofloxacin] the same measures were 0.144, 0.142, 0.146 and 0.158.
For `CC(=O)Oc1ccccc1C(=O)O` [Acetylsalicylicacid] + O=C(O[C@@H]1Cc2c(O)cc(O)cc2O[C@@H]1c1cc(O)c(O)c(O)c1)c1cc(O)c(O)c(O)c1 [EGCG] the same measures were -0.0702, 0.159, 0.141 and 0.0426.
For `CC(=O)Oc1ccccc1C(=O)O` [Acetylsalicylicacid] + Oc1cc(Cl)ccc1Oc1ccc(Cl)cc1Cl [Triclosan] the same measures were -0.0513, -0.114, 0.129 and -0.0273.
Take `N#CC(C#N)=NNc1cccc(Cl)c1` [CCCP] + C/C(=C\C(=O)OCCCCCCCCC(=O)O)C[C@@H]1OC[C@H](C[C@@H]2O[C@H]2[C@@H](C)[C@H](C)O)[C@@H](O)[C@H]1O [Pseudomonic acid]: the Bliss interaction score is 0.0939 in the assay with S. pneumoniae D39V, 0.0141 in the assay with S. aureus DSM 20231, -0.137 with B. subtilis 168 and -0.0111 with S. aureus Newman.
For `N#CC(C#N)=NNc1cccc(Cl)c1` [CCCP] + CC1(C)S[C@@H]2[C@H](NC(=O)Cc3ccccc3)C(=O)N2[C@H]1C(=O)O [PenicillinG], the Bliss interaction score in the assay with S. pneumoniae D39V was 0.0767; in the assay on S. aureus DSM 20231 it was 0.0402; in the assay on B. subtilis 168, 0.0568; with S. aureus Newman it was -0.0514.
The matching figures for `N#CC(C#N)=NNc1cccc(Cl)c1` [CCCP] + CC1=C(C(=O)O)N2C(=O)[C@@H](NC(=O)[C@H](N)c3ccccc3)[C@H]2SC1 [Cephalexin]: -0.0759, 0.0708, 0.0431 and -0.0498.
As to `N#CC(C#N)=NNc1cccc(Cl)c1` [CCCP] + CC1=C\[C@@H](O)CC(=O)Cc2nc(co2)C(=O)N2CCC=C2C(=O)O[C@H](C(C)C)[C@H](C)/C=C/C(=O)NC\C=C\1 [Virginiamycin M1], the Bliss interaction score with S. pneumoniae D39V was 0.0981; in the assay with S. aureus DSM 20231, 0.0407; in the assay on B. subtilis 168, -0.0262; in the assay with S. aureus Newman, -0.0388.
The matching figures for `N#CC(C#N)=NNc1cccc(Cl)c1` [CCCP] + CC(=O)NC[C@H]1CN(c2ccc(N3CCOCC3)c(F)c2)C(=O)O1 [Linezolid]: 0.0853, -0.0274, 0.0322 and 0.0931.
The matching figures for `N#CC(C#N)=NNc1cccc(Cl)c1` [CCCP] + CC(=O)O[C@H]1C[C@@]2(C)[C@@H](C[C@@H](O)[C@H]3[C@@]4(C)CC[C@@H](O)[C@@H](C)[C@@H]4CC[C@@]32C)/C1=C(\CCC=C(C)C)C(=O)O [Fusidic acid]: 0.122, 0.0429, -0.18 and 0.0673.
Take `N#CC(C#N)=NNc1cccc(Cl)c1` [CCCP] + CC(C1CCC(C(O1)OC2C(CC(C(C2O)OC3C(C(C(CO3)(C)O)NC)O)N)N)N)NC [Gentamicin]: the Bliss interaction score in the assay on S. pneumoniae D39V (main component drawn) was found to be 0.0882; with S. aureus DSM 20231 (main component drawn), 0.0926; with B. subtilis 168 (main component drawn), 0.259; with S. aureus Newman (main component drawn) it was 0.116.
The matching figures for `N#CC(C#N)=NNc1cccc(Cl)c1` [CCCP] + CCC(C)C1C(=O)NC(=C)C(=O)NC(C(=O)NC(CSCC(C(=O)N1)NC(=O)/C(=C/C)/NC(=O)C(C(C)CC)N)C(=O)NC2C(SCC(NC(=O)CNC(=O)C3CCCN3C2=O)C(=O)NC(CCCCN)C(=O)NC4C(SCC(NC(=O)CNC(=O)C(NC(=O)C(NC(=O)C(NC(=O)CNC4=O)C)CC(C)C)CCSC)C(=O)NC(CC(=O)N)C(=O)NC(CCSC)C(=O)NC(CCCCN)C(=O)NC5C(SCC6C(=O)NC(C(=O)NC(CSC(C(C(=O)N6)NC(=O)C(NC5=O)C)C)C(=O)NC(CO)C(=O)NC(C(C)CC)C(=O)NC(CC7=CN=CN7)C(=O)NC(C(C)C)C(=O)NC(=C)C(=O)NC(CCCCN)C(=O)O)CC8=CN=CN8)C)C)C)CC(C)C [Nisin]: -0.0317, 0.0712, 0.0522 and -0.0401.
Regarding `N#CC(C#N)=NNc1cccc(Cl)c1` [CCCP] + CCCCCCCCCC(=O)N[C@@H]1[C@H]([C@@H]([C@H](O[C@H]1OC2=C3C=C4C=C2OC5=C(C=C(C=C5)[C@H]([C@H]6C(=O)N[C@@H](C7=C(C(=CC(=C7)O)OC8[C@H]([C@H]([C@@H]([C@H](O8)CO)O)O)O)C9=C(C=CC(=C9)[C@H](C(=O)N6)NC(=O)[C@@H]4NC(=O)[C@@H]1C2=CC(=CC(=C2)OC2=C(C=CC(=C2)[C@H](C(=O)N[C@H](CC2=CC(=C(O3)C=C2)Cl)C(=O)N1)N)O)O)O)C(=O)O)O[C@H]1[C@@H]([C@H]([C@@H]([C@H](O1)CO)O)O)NC(=O)C)Cl)CO)O)O [Teicoplanin], the Bliss interaction score is 0.096 in the assay on S. pneumoniae D39V (main component drawn), 0.0772 in the assay with S. aureus DSM 20231 (main component drawn), 0.17 in the assay on B. subtilis 168 (main component drawn) and -0.0483 with S. aureus Newman (main component drawn).
As to `N#CC(C#N)=NNc1cccc(Cl)c1` [CCCP] + CCC[C@@H]1C[C@@H](C(=O)N[C@@H]([C@H]2O[C@H](SC)[C@H](O)[C@@H](O)[C@H]2O)[C@@H](C)O)N(C)C1 [Lincomycin], the Bliss interaction score with S. pneumoniae D39V is 0.0513; in the assay on S. aureus DSM 20231, -0.0627; in the assay on B. subtilis 168, -0.0311; in the assay with S. aureus Newman, 0.116.
